This is an account of results in patent US20230002372A1, “AZAINDOLE CARBOXAMIDE COMPOUNDS FOR THE TREATMENT OF MYCOBACTERIAL INFECTIONS” (THE GLOBAL ALLIANCE FOR TB DRUG DEVELOPMENT, INC., priority 2019, published 2023).

The structures appear in SMILES notation. Converted amounts (≈) assume the structure as drawn.

The test system of this test is M tb H37Rv. Nature of the test: MIC determination against M tb H37Rv (green fluorescent protein reporter assay; MIC-MABA). The test is classed as cell-based, Mycobacterium tuberculosis. As to conditions: Mycobacterium tuberculosis, H37RV, 240 h, read-out: M. TB H37Rv: MIC-MABA: MIC, M. tb H37Rv; 7H9 broth; 10 days exposure; MIC = lowest concentration inhibiting fluorescence by 90%. (In general: In a reporter assay the amount or activity of a reporter protein is the signal.)
On to `Cc1nc2[nH]c(C(=O)N[C@@H]3CCC[Si](C)(C)CC3)cc2c(F)c1F` (single isomer, unassigned) [MPL-282A], for which the MIC amounted to 0.051 µg/mL (≈ 0.145 µM). For the compound `C[C@@H]1[C@@H](NC(=O)c2cc3c(Cl)cncc3[nH]2)C[C@H]2C[C@@H]1C2(C)C` [MPL-006, 4-chloro-N-[(1S,2S,3S,5R)-2,6,6-trimethylnorpinan-3-yl]-1H-pyrrolo[2,3-c]Pyridine-2-carboxamide], the MIC stood at 0.3 µg/mL (≈ 0.904 µM). Regarding `CC1(C)CCC(NC(=O)c2cc3c(C4CC4)ccnc3[nH]2)CC1` [MPL-017, 4-cyclopropyl-N-(4,4-dimethylcyclohexyl)-1H-pyrrolo[2,3-b]pyridine-2-carboxamide], the MIC came to 0.72 µg/mL (≈ 2.31 µM). As for `Cc1cc(F)c2c(C)c(C(=O)NC3CC[Si]4(CCCC4)CC3)[nH]c2n1` [MPL-280, 4-fluoro-3,6-dimethyl-N-(5-silaspiro[4.5]decan-8-yl)-1H-pyrrolo[2,3-b]pyridine-2-carboxamide], the MIC came out at 0.043 µg/mL (≈ 0.12 µM).

Take `Cc1nc2[nH]c(C(=O)N[C@H]3C[C@H]4C[C@@H]([C@@H]3C)C4(C)C)cc2c(F)c1Cl` [MPL-068, 5-chloro-4-fluoro-6-methyl-N-[(1S,2S,3S,5R)-2,6,6-trimethylnorpinan-3-yl]-1H-pyrrolo[2,3-b]pyridine-2-carboxamide]: the MIC worked out at 0.046 µg/mL (≈ 0.126 µM). For the compound `CC1(C)CCC(NC(=O)c2cc3cc(F)ncc3[nH]2)CC1` [MPL-129, N-(4,4-dimethylcyclohexyl)-5-fluoro-1H-pyrrolo[2,3-c]pyridine-2-carboxamide], the MIC is 0.5 µg/mL (≈ 1.73 µM).

Regarding `C[Si]1(C)CCC(NC(=O)c2cc3ccc(OC4CCC4)nc3[nH]2)CC1` [MPL-467, 6-(cyclobutoxy)-N-(1,1-dimethylsilinan-4-yl)-1H-pyrrolo[2,3-b]pyridine-2-carboxamide], the MIC was found to be 0.121 µg/mL (≈ 0.338 µM).

For `CC1(C)CCC(NC(=O)c2cc3c(Cl)cncc3[nH]2)CC1` [MPL-003, 4-chloro-N-(4,4-dimethylcyclohexyl)-1H-pyrrolo[2,3-c]pyridine-2-carboxamide], the MIC was determined as 0.01 µg/mL (≈ 0.0327 µM). Consider `Cc1cc(C)c2cc(C(=O)NC3CCC(C)(C)CC3)[nH]c2n1` [MPL-019, N-(4,4-dimethylcyclohexyl)-4,6-dimethyl-1H-pyrrolo[2,3-b]pyridine-2-carboxamide], for which the MIC amounted to 9 µg/mL (≈ 30.1 µM). `O=C(NC1CCC2(CCC2)CC1)c1cc2c(F)ccnc2[nH]1` [MPL-002, 4-fluoro-N-spiro[3.5]nonan-7-yl-1H-pyrrolo[2,3-b]pyridine-2-carboxamide]: the MIC amounted to 0.056 µg/mL (≈ 0.186 µM).

`O=C(NC1CC[Si]2(CCCCC2)CC1)c1cc2cc(-c3ccccc3F)cnc2[nH]1` [MPL-434, 5-(2-fluorophenyl)-N-(6-silaspiro[5.5]undecan-3-yl)-1H-pyrrolo[2,3-b]pyridine-2-carboxamide]: the MIC was found to be 0.061 µg/mL (≈ 0.145 µM). For `O=C(NC1CC2CCC(C2)C1)c1cc2c(Cl)cncc2[nH]1` (stereo not shown) [MPL-166, N-(3-bicyclo[3.2.1]octanyl)-4-chloro-1H-pyrrolo[2,3-c]pyridine-2-carboxamide] the value was 0.39 µg/mL (≈ 1.28 µM); for `Cc1cc(Cl)c2cc(C(=O)NC3CCC[Si](C)(C)CCC3)[nH]c2n1` [MPL-305], 0.015 µg/mL (≈ 0.0412 µM); for `Cc1ncc2[nH]c(C(=O)NC3CC[Si]4(CCCCC4)CC3)cc2c1F` [MPL-320, 4-fluoro-5-methyl-N-(6-silaspiro[5.5]undecan-3-yl)-1H-pyrrolo[2,3-c]pyridine-2-carboxamide], 0.25 µg/mL (≈ 0.695 µM). For `O=C(NC1CC2CCC(C2)C1)c1cc2c(F)ccnc2[nH]1` (stereo not shown) [MPL-157, N-(3-bicyclo[3.2.1]octanyl)-4-fluoro-1H-pyrrolo[2,3-b]pyridine-2-carboxamide] the value was 2.6 µg/mL (≈ 9.05 µM); for `O=C(NC1CCCCCCC1)c1cc2c(C(F)(F)F)ccnc2[nH]1` [MPL-037, N-cyclooctyl-4-(trifluoromethyl)-1H-pyrrolo[2,3-b]pyridine-2-carboxamide], 0.014 µg/mL (≈ 0.0413 µM). For `CC1(C)CCC(NC(=O)c2cc3c(F)cncc3[nH]2)CC1` [MPL-094, N-(4,4-dimethylcyclohexyl)-4-fluoro-1H-pyrrolo[2,3-c]pyridine-2-carboxamide] the value was 0.049 µg/mL (≈ 0.169 µM).

As for `CC1(C)CCC(NC(=O)c2cc3c(C#N)cncc3[nH]2)CC1` [MPL-097, 4-cyano-N-(4,4-dimethylcyclohexyl)-1H-pyrrolo[2,3-c]pyridine-2-carboxamide], the MIC worked out at 0.16 µg/mL (≈ 0.54 µM).

Regarding `O=C(NC1CCCCCCC1)c1cc2c(Cl)ccnc2[nH]1` [MPL-033, 4-chloro-N-cyclooctyl-1H-pyrrolo[2,3-b]pyridine-2-carboxamide], the MIC was determined as 0.038 µg/mL (≈ 0.124 µM). The figure for `CC1(C)[C@H]2C[C@H](NC(=O)c3cc4c(C(F)(F)F)ccnc4[nH]3)[C@](C)(O)[C@@H]1C2` [MPL-216, N-[(1R,2R,3S,5R)-2-hydroxy-2,6,6-trimethyl-norpinan-3-yl]-4-(trifluoromethyl)-1H-pyrrolo[2,3-b]pyridine-2-carboxamide] is 0.041 µg/mL (≈ 0.107 µM); for `C[Si]1(C)CCC(NC(=O)c2cc3c(F)ccnc3[nH]2)CC1` [MPL-109, N-(1,1-dimethylsilinan-4-yl)-4-fluoro-1H-pyrrolo[2,3-b]pyridine-2-carboxamide] it is 0.022 µg/mL (≈ 0.072 µM). For `Cc1nc2[nH]c(C(=O)N[C@H]3C[C@H]4C[C@@H]([C@@H]3C)C4(C)C)cc2c(F)c1F` [MPL-066, 4,5-difluoro-6-methyl-N-[(1S,2S,3S,5R)-2,6,6-trimethylnorpinan-3-yl]-1H-pyrrolo[2,3-b]pyridine-2-carboxamide] the value was 0.012 µg/mL (≈ 0.0345 µM); for `COc1ccnc2[nH]c(C(=O)N[C@H]3C[C@H]4C[C@@H]([C@@H]3C)C4(C)C)cc12` [MPL-014, 4-methoxy-N-[(1S,2S,3S,5R)-2,6,6-trimethylnorpinan-3-yl]-1H-pyrrolo[2,3-b]pyridine-2-carboxamide], 5.4 µg/mL (≈ 16.5 µM). The figure for `O=C(NC1CC[Si]2(CCCCC2)CC1)c1cc2c(F)c(Cl)ncc2[nH]1` [MPL-348, 5-chloro-4-fluoro-N-(6-silaspiro[5.5]undecan-3-yl)-1H-pyrrolo[2,3-c]pyridine-2-carboxamide] is 0.435 µg/mL (≈ 1.14 µM); for `Cc1nc2[nH]c(C(=O)NC3CCCC[Si](C)(C)CC3)cc2c(F)c1Cl` (stereo not shown) [MPL-292, 5-chloro-N-(1,1-dimethylsilocan-4-yl)-4-fluoro-6-methyl-1H-pyrrolo[2,3-b]pyridine-2-carboxamide] it is 0.0271 µg/mL (≈ 0.071 µM). On to `CNc1ccnc2[nH]c(C(=O)N[C@H]3C[C@H]4C[C@@H]([C@@H]3C)C4(C)C)cc12` [MPL-023, 4-(methylamino)-N-[(1S,2S,3S,5R)-2,6,6-trimethylnorpinan-3-yl]-1H-pyrrolo[2,3-b]pyridine-2-carboxamide], for which the MIC is 11 µg/mL (≈ 33.7 µM). The figure for `C[C@@H]1[C@@H](NC(=O)c2cc3c(C(F)(F)F)ccnc3[nH]2)C[C@H]2C[C@@H]1C2(C)C` [MPL-015, 4-(trifluoromethyl)-N-[(1S,2S,3S,5R)-2,6,6-trimethylnorpinan-3-yl]-1H-pyrrolo[2,3-b]pyridine-2-carboxamide] is 0.044 µg/mL (≈ 0.12 µM); for `Cc1cc2cc(C(=O)N[C@H]3C[C@H]4C[C@@H]([C@@H]3C)C4(C)C)[nH]c2nc1C` [MPL-070, 5,6-dimethyl-N-((1S,2S,3S,5R)-2,6,6-trimethylbicyclo[3.1.1]heptan-3-yl)-1H-pyrrolo[2,3-b]pyridine-2-carboxamide] it is 0.49 µg/mL (≈ 1.51 µM). Turning to `CNc1ccnc2[nH]c(C(=O)NC3CCCCCCC3)cc12` [MPL-040, N-cyclooctyl-4-(methylamino)-1H-pyrrolo[2,3-b]pyridine-2-carboxamide], the MIC is 6.2 µg/mL (≈ 20.6 µM). The figure for `C[Si]1(C)CCC(NC(=O)c2cc3cc(-c4ccccc4)cnc3[nH]2)CC1` [MPL-391, N-(1,1-dimethylsilinan-4-yl)-5-phenyl-1H-pyrrolo[2,3-b]pyridine-2-carboxamide] is 0.051 µg/mL (≈ 0.14 µM); for `COc1ccc2cc(C(=O)NC3CCC[Si](C)(C)CCC3)[nH]c2n1` [MPL-469, N-(1,1-dimethylsilocan-5-yl)-6-methoxy-1H-pyrrolo[2,3-b]pyridine-2-carboxamide] it is 0.206 µg/mL (≈ 0.596 µM); for `Cc1nc2[nH]c(C(=O)NC3CC[Si]4(CCCCC4)CC3)cc2c(F)c1F` [MPL-285, 4,5-difluoro-6-methyl-N-(6-silaspiro[5.5]undecan-3-yl)-1H-pyrrolo[2,3-b]pyridine-2-carboxamide] it is 0.016 µg/mL (≈ 0.0424 µM). For `C[Si]1(C)CCCC(NC(=O)c2cc3c(Cl)c(Cl)ncc3[nH]2)CC1` (stereo not shown) [MPL-350, 4,5-dichloro-N-(1,1-dimethylsilepan-4-yl)-1H-pyrrolo[2,3-c]pyridine-2-carboxamide] the value was 0.247 µg/mL (≈ 0.667 µM); for `C[C@@H]1[C@@H](NC(=O)c2cc3c(C(F)(F)F)cncc3[nH]2)C[C@H]2C[C@@H]1C2(C)C` [MPL-100, 4-(trifluoromethyl)-N-[(1S,2S,3S,5R)-2,6,6-trimethylnorpinan-3-yl]-1H-pyrrolo[2,3-c]pyridine-2-carboxamide], 0.24 µg/mL (≈ 0.657 µM); for `Cc1cc(C)c2cc(C(=O)NC3CCCCCCC3)[nH]c2n1` [MPL-041, N-cyclooctyl-4,6-dimethyl-1H-pyrrolo[2,3-b]pyridine-2-carboxamide], 8.5 µg/mL (≈ 28.4 µM). The figure for `C[Si]1(C)CCC(NC(=O)c2cc3ccc(-c4ccccc4)nc3[nH]2)CC1` [MPL-388, N-(1,1-dimethylsilinan-4-yl)-6-phenyl-1H-pyrrolo[2,3-b]pyridine-2-carboxamide] is 0.012 µg/mL (≈ 0.033 µM); for `Cc1ncc2[nH]c(C(=O)NC3CC[Si](C)(C)CC3)cc2c1F` [MPL-318, N-(1,1-dimethylsilinan-4-yl)-4-fluoro-5-methyl-1H-pyrrolo[2,3-c]pyridine-2-carboxamide] it is 0.134 µg/mL (≈ 0.419 µM). On to `C[Si]1(C)CCC(NC(=O)c2cc3c(Cl)c(C(F)(F)F)ncc3[nH]2)CC1` [MPL-329, 4-chloro-N-(1,1-dimethylsilinan-4-yl)-5-(trifluoromethyl)-1H-pyrrolo[2,3-c]pyridine-2-carboxamide], for which the minimal inhibitory concentration (MIC) was found to be 0.491 µg/mL (≈ 1.26 µM). The figure for `CC1(C)C2CCC1(C)C(NC(=O)c1cc3c(Cl)cncc3[nH]1)C2` (stereo not shown) [MPL-189, 4-chloro-N-(1,7,7-trimethylnorbornan-2-yl)-1H-pyrrolo[2,3-c]pyridine-2-carboxamide] is 0.095 µg/mL (≈ 0.286 µM). Regarding `Cc1nc2[nH]c(C(=O)N[C@H]3CCC[Si](C)(C)CC3)cc2c(F)c1Cl` (single isomer, unassigned) [MPL-316B], the MIC stood at 0.25 µg/mL (≈ 0.679 µM).

The term MIC denotes the smallest concentration in the dilution series that meets the test's criterion for growth inhibition.
